Legend:
Format in all cases: cell-based, human
[1] = test system: T cell lines primed in vitro with Der p II; experiment: T cell proliferation with fine map and modified Group II peptides (Example XIV); conditions: FIGS. 32a-b
Method: Long term T cell lines were established by stimulation of 2×10^6 PBL/ml in bulk cultures of complete medium (RPMI-1640, 2 mM L-glutamine, 100 U/ml penicillin/streptomycin, 5×10^-5 M 2-mercaptoethanol, and 10 mM HEPES supplemented with 5% heat inactivated human AB serum) with 30 μg/ml of purified native Der p I or Der p II for 5-6 days at 37° C. in a humidified 5% CO2 incubator to select for house dust mite protein allergen reactive T cells. This amount of priming antigen was determined to be optimal for the activation of T cells from house dust mite allergic patients. Viable cells were purified by LSM centrifugation and cultured in complete medium supplemented with 5 units recombinant human IL-2/ml and 5 units recombinant human IL-4/ml for up to three weeks until the cells no longer responded to lymphokines and were considered "rested". The ability of the T cells to proliferate to selected peptides, purified Der p I or Der p II, or positive (PHA) controls or negative controls (medium only) was then assessed. For assay, 2×10^4 rested cells were restimulated in the presence of 2×10^4 autologous Epstein-Barr virus (EBV)-transformed B cells (prepared as described below) (gamma-irradiated with 25,000 RADS) or with 5×10^4 autologous PBMs (gamma-irradiated with 3500 RADS), with 2-50 μg/ml of purified native Der p I or Der p II in a volume of 200 μl complete medium in duplicate or triplicate wells in 96-well round bottom plates for 3 days. Each well then received 1 μCi tritiated thymidine for 16-20 hours. The counts incorporated were collected onto glass fiber filter mats and processed for liquid scintillation counting. […] The titrations were used to optimize the dose of peptides in T cell assays.
The maximum response in a titration of each peptide is expressed as the stimulation index (S.I.). The S.I. is the counts per minute (CPM) incorporated by cells in response to peptide, divided by the CPM incorporated by cells in medium only. […] The positive results were used in calculating mean stimulation indices for each peptide for the individual patient tested.
The above procedure was followed with 18 patients in the studies using peptides derived from Der p I and Der f I (FIGS. 31a-b), and 21 patients in the studies with Der p II peptides (FIGS. 32a-b). Individual patient results were used in calculating the mean S.I. for each peptide if the patient responded to the Der p I or Der p II protein at an S.I. of 2.0 or greater and the patient responded to at least one peptide derived from a house dust mite allergen at an S.I. f 2.0 or greater. A summary of positive experiments from the patients tested is shown in FIGS. 32a and 32b and FIGS. 33a and 33b. The bars represent the positivity index. […] In parenthesis above each bar are the mean stimulation indices for each peptide or protein for the group of patients tested.
Autologous EBV-transformed cell lines were γ-irradiated with 25,000 Rad and used as antigen presenting cells in secondary proliferation assays and secondary bulk stimulations. These EBV-transformed cell lines were made by incubating 5×10^6 PBL with 1 ml of B-59/8 Marmoset cell line (ATCC CRL1612, American Type Culture Collection, Rockville, Md.) conditioned medium in the presence of 1 μg/ml phorbol 12-myristate 13-acetate (PMA) at 37° C. for 60 minutes in 12×75 mm polypropylene round-bottom Falcon snap cap tubes (Becton Dickinson Labware, Lincoln Park, N.J.). These cells were then diluted to 1.25×10^6 cells/ml in RPMI-1640 as described above except supplemented with 10% heat-inactivated fetal bovine serum and cultured in 200 μl aliquots in flat bottom culture plates until visible colonies were detected. They were then transferred to larger wells until the cell lines were established.

[2] = test system: PBMC from mite-allergic patient; experiment: primary T cell (PBMC) proliferation, mite-allergic patient, tritiated thymidine; conditions: medium 1071 ± 30
Method: Peripheral blood mononuclear cells (PBMC) were purified by Ficoll-Hypaque centrifugation of a peripheral blood specimen from mite-allergic patient and were assayed for proliferation in response to various antigens, i.e., affinity-purified Der p I, affinity purified Der p II, various Der p I and Der p II peptides. For assay, 5×10^4 PBMC were cultured in triplicate microwells for 7 days at 37° C. in the presence of various concentrations of antigen in 200 μl RPMI-1640 containing 5% human AB serum. Each well then received 1 μCi tritiated thymidine for 16 hours. The counts incorporated were collected onto glass fiber filters and processed for liquid scintillation counting. […] The CPM +/- standard deviation are shown. The stimulation index of each response (S.I.) is the ratio of the ^3 H-thymidine CPM incorporated by the cells in response to antigen divided by the ^3 H-thymidine CPM incorporated by cells in medium only. […] Thus, these peptides contain Der p I or Der p II T cell epitopes recognized by T cells from this particular allergic patient.

[3] = test system: T cell lines primed in vitro to Der p I; experiment: secondary proliferation of Der p I-primed T cell lines (Examples V, VII, XI); conditions: overlapping Der p I peptides; 33 positive experiments
Method: 10^7 PBMC from individual 543 were cultured in 10 ml RPMI-1640 containing 5% pooled human AB serum and supplemented with glutamine, penicillin, streptomycin and HEPES buffer in the presence of 20 μg/ml purified native Der p I/ml at 37° C. for 7 days. Viable cells were then purified by Ficoll-Hypaque centrifugation and cultured for 2 additional weeks in RPMI-1640/5% AB serum containing 5 units recombinant human IL-2/ml and 5 units recombinant human IL-4/ml. The resting T cells were then tested in a secondary proliferation assay to assess T cell responses to various house dust mite proteins and peptides. For assay, 2×10^4 resting T cells were cultured in 200 μl of RPMI-1640/5% AB serum for 3 days at 37° C. in the presence of 2×10^4 autologous Epstein-Barr virus transformed B cells (20,000 Rads) as antigen presenting cells with various concentrations of purified native Der p I or synthetic Der p I peptides. Each well then received 1 μCi tritiated thymidine for 16 hours. The counts incorporated were collected onto glass fiber filters and processed for liquid scintillation counting. Medium alone, acting as negative control, contained no allergen or peptide. The results of this experiment indicate that this particular patient responds with an S.I. of at least 2.0 to several peptides derived from the Der p I protein, including DP I-1, DP I-2, DP I-4, DP I-11, DP I-5, DP I-13, DP I-15, DP I-6.1, DP I-8, DP I-9, DP I-16, DP I-10 and DP I-17 (data not shown).
The above procedure was followed with a number of other house dust mite allergic individuals except a) in individual cases, the length of time of cultivation with IL-2 and IL-4 varied; b) in individual cases, the T cells were primed with either purified native (N) or recombinant (R) Der p I protein at either 20 μg/ml or 10 μg/ml; and c) in individual cases, x-irradiated (3500 Rads) autologous PBMC were used as antigen presenting cells in the secondary proliferation assay.
Individual results were considered positive and used if the individual responded to the Der p I protein and at least one peptide derived from Der p I at an S.I. of 2.0 or greater. The resting T cell lines primed with recombinant or native Der p I-stimulated PBMC were tested for reactivity to synthetic Der p I peptides. The maximum response for each peptide in a titration of the antigen is expressed as the T cell stimulation index (S.I.). The S.I. is the counts-per-minute (CPM) incorporated by cells in response to the peptide divided by the CPM incorporated by cells in medium only. […] However, only individual S.I. values greater than or equal to 2.0 (a response two-fold or greater over background), referred to herein as "positive" results, were used in calculating mean T cell stimulation indices for each peptide for the patient or group of patients tested. […] The T cell stimulation index is calculated by: [formula]
The bar represents the cumulative rank of the peptide response in the group of patients. To determine the cumulative rank, the 5 peptides with the highest S.I. in each individual were determined and assigned a numerical rank in descending order, with 5 representing the strongest response. The ranks for each peptide were then summed in the group of patients to determine the cumulative rank for the peptide. […] Given the percent positive and the mean T cell stimulation index, the positivity index (P.I.) for each peptide can be calculated.
The Der p I and Der f I proteins are very homologous (81% identity). Thus, experiments, similar to those of Example V, were carried out to determine the T cell responses of Der p I primed T cell lines when challenged with various Der p I peptides and substantially matching […].
The results of T cell studies using selected peptides derived from the Der p I, the Der f I, the Der p II and the Der f II proteins are shown in FIGS. 13-18a-d. […]

[4] = test system: T cell lines primed in vitro to Der f I; experiment: secondary proliferation of Der f I-primed T cell lines (Examples VI, VII, XI); conditions: Der f I primed; 8 positive experiments; FIG. 8
Method: Experiments similar to those of Example V were performed to determine. the T cell-reactive areas of the Der f I protein. For example, PBMC from house dust mite-allergic patient 783 were isolated as described in Example V and were stimulated in vitro-- with recombinant purified Der f I at 20 μg/ml. The results of the proliferation assay with Der f I peptides using x-irradiated (3500 Rads) autologous PBMC as antigen presenting cells indicate that T cells from this patient respond to the peptides DF I-8.1, DF I-9, DF I-6, DF I-10, DF I-2.1, DF I-3, DF I-11, DF I-5, DF I-1, and DF I-17 (data not shown).
The above procedure was followed in a number of patients except in individual cases, T cell lines were primed with affinity purified Der f I at 20 μg/ml or at 10 μg/ml and x-irradiated (25,000 Rads) autologous Epstein-Barr virus transformed B cells were used as antigen presenting cells. […]
Similarly, the procedure described in Example VI was followed with T cell lines from 9 patients primed in vitro to the Der f I protein then analyzed for response to selected peptides derived from the protein. The data was analyzed as described in Example VI. […]

[5] = test system: T cell lines primed in vitro to Der p II; experiment: secondary proliferation of Der p II-primed T cell lines (Examples VIII, X, XI)
Method: Experiments similar to those of Example V were performed to determine the T cell-reactive areas of the Der p II protein. For example, PBMC from house dust mite-allergic patient 348 were isolated as described in Example V and were stimulated in vitro with 20 μg/ml purified native Der p II.
The above procedure was followed with a number of patients except in individual cases, T cell lines were primed with recombinant Der p II at 20 μg/ml or at 3 μg/ml and x-irradiated (3500 Rads) autologous PBMC were used as antigen-presenting cells. The data was analyzed as described in Example V, except the ranked sum of peptide responses was analyzed assigning a value of 3, 2 or 1 to the three highest S.I. responses.
A study similar to that described in Example VII was carried out to determine the T cell cross-reactivity of the Der p II and Der f II proteins. T cells primed with the Der f II protein were challenged with various Der f II peptides and a set of substantially matching Der p II peptides.
Another experiment following the procedure described in Example VIII analyzed the response of 29 patients primed in vitro to the Der p II protein and challenged with selected peptides derived from the Der p II sequence.

Substance: DP II-20: Der p II peptide (DQVDVKDCANHEIKKVLVPGCHGSEP)
- T cell response, Group II peptides [1]: positive T cell studies

Substance: DPII-8: printed among the modified forms; SEQ ID NO 171 in b126, probably DP II-20.8 (DQVDVKDCANHEIKKVLVPGCHGSEPK)
- T cell response, Group II peptides [1]: positive T cell studies

Substance: DP I-8: Der p I peptide (IKDLDAFRHYDGTRIIQRDNGYQPNY)
- CPM ± S.D. ([2]; 10 μg/ml): 1439 ± 32 CPM
- CPM ± S.D. ([2]; 30 μg/ml): 1045 ± 32 CPM
- CPM ± S.D. ([2]; 100 μg/ml): 2272 ± 40 CPM
- T cell reactivity [3]: significant regions of T cell reactivity
- T cell response to Der p I peptides [4]: respond significantly

Substance: DP II-9: Der p II peptide (VVTVKVMGDDGVLACAIATHAKIRD)
- CPM ± S.D. ([2]; 10 μg/ml): 3970 ± 87 CPM
- CPM ± S.D. ([2]; 30 μg/ml): 4464 ± 86 CPM
- CPM ± S.D. ([2]; 100 μg/ml): 2237 ± 53 CPM
- T cell reactivity ([5]; overlapping Der p II peptides, 26 positive experiments, FIG. 9): significant T cell reactivity
- T cell response ([5]; patient 348, native Der p II primed, data not shown): responds well
